Data published in patent US20170151295A1, “USE OF CHI-JU-DI-HUANG-WAN IN TREATING RETINAL ISCHEMIA OR A DISEASE, CONDITION, OR DISORDER ASSOCIATED WITH RETINAL ISCHEMIA” (priority 2015, published 2017).

Experiments:
Type in all cases: in vivo, Wistar rats
[1] = tested on: P-p38 MAPK; test: Western blotting, retinal P-p38 MAPK after I/R; conditions: intravitreal 2 nmole 15 min before ischemia, I/R 24 h
Method: Intravitreal injections were performed using a 30-gauge needle attached to a 25 μl syringe after pupil dilation with 1% tropicamide and 2.5% phenylephrine. In certain instances, intravitreal injections of 4 μl of 2 nmole SB203580 (Calbiochem, San Diego, Calif.) or vehicle (an equal volume of DMSO) were performed on ischemic eyes fifteen minutes before pressure-induced retinal ischemia.
One day following retinal ischemia with preadministration of relevant compounds or following a sham procedure, the animals were sacrificed. Retinal samples were retrieved and sonicated in a lysis buffer, mammalian protein extraction reagent (Pierce, Ill.).

[2] = tested on: MMP-9; test: Gel zymography, retinal MMP-9 activity after I/R; conditions: intravitreal 2 nmole 15 min before ischemia, 24 h after ischemia
[3] = tested on: MMP-9; test: Western blotting, retinal MMP-9 after I/R; conditions: intravitreal 2 nmole 15 min before ischemia, I/R 24 h

C[S+]([O-])c1ccc(-c2nc(-c3ccncc3)c(-c3ccc(F)cc3)[nH]2)cc1 (stereo not drawn) [SB203580]
P-p38/β-actin protein ratio [1]: 0.23 ± 0.05 | MMP-9/β-actin (gel zymography, MMP-9 activity) [2]: 1.49 ± 0.21 | MMP-9/β-actin protein ratio (Western blotting) [3]: 0.31 ± 0.10
